BigSolDB 2.1

Cc1c(C(=O)/C=C/c2ccccc2)[n+](=O)c2ccccc2n1[O-]
solubility (mole fraction) (in DMF, 283.15 K): 0.00549
solubility (mole fraction) (in DMF, 288.15 K): 0.00639
solubility (mole fraction) (in DMF, 293.15 K): 0.00748
solubility (mole fraction) (in DMF, 298.15 K): 0.00856
solubility (mole fraction) (in DMF, 303.15 K): 0.00978
solubility (mole fraction) (in DMF, 308.15 K): 0.0111
solubility (mole fraction) (in DMF, 313.15 K): 0.0127
solubility (mole fraction) (in DMF, 318.15 K): 0.0145
solubility (mole fraction) (in DMF, 323.15 K): 0.0163
solubility (mole fraction) (in DMF, 328.15 K): 0.0187
solubility (mole fraction) (in DMSO, 293.15 K): 0.00722
solubility (mole fraction) (in DMSO, 298.15 K): 0.00807
solubility (mole fraction) (in DMSO, 303.15 K): 0.00913
solubility (mole fraction) (in DMSO, 308.15 K): 0.0103
solubility (mole fraction) (in DMSO, 313.15 K): 0.0117
solubility (mole fraction) (in DMSO, 318.15 K): 0.0132
solubility (mole fraction) (in DMSO, 323.15 K): 0.0149
solubility (mole fraction) (in DMSO, 328.15 K): 0.0167
solubility (mole fraction) (in ethanol, 283.15 K): 9.81e-05
solubility (mole fraction) (in ethanol, 288.15 K): 0.000123
solubility (mole fraction) (in ethanol, 293.15 K): 0.000151
solubility (mole fraction) (in ethanol, 298.15 K): 0.00019
solubility (mole fraction) (in ethanol, 303.15 K): 0.000233
solubility (mole fraction) (in ethanol, 308.15 K): 0.000288
solubility (mole fraction) (in ethanol, 313.15 K): 0.000351
solubility (mole fraction) (in ethanol, 318.15 K): 0.000425
solubility (mole fraction) (in ethanol, 323.15 K): 0.000512
solubility (mole fraction) (in ethanol, 328.15 K): 0.000611
solubility (mole fraction) (in isopropanol, 283.15 K): 8.14e-05
solubility (mole fraction) (in isopropanol, 288.15 K): 0.000104
solubility (mole fraction) (in isopropanol, 293.15 K): 0.000133
solubility (mole fraction) (in isopropanol, 298.15 K): 0.00017
solubility (mole fraction) (in isopropanol, 303.15 K): 0.000217
solubility (mole fraction) (in isopropanol, 308.15 K): 0.000278
solubility (mole fraction) (in isopropanol, 313.15 K): 0.000348
solubility (mole fraction) (in isopropanol, 318.15 K): 0.000437
solubility (mole fraction) (in isopropanol, 323.15 K): 0.000541
solubility (mole fraction) (in isopropanol, 328.15 K): 0.000668
solubility (mole fraction) (in water, 283.15 K): 2.49e-06
solubility (mole fraction) (in water, 288.15 K): 2.93e-06
solubility (mole fraction) (in water, 293.15 K): 3.4e-06
solubility (mole fraction) (in water, 298.15 K): 3.95e-06
solubility (mole fraction) (in water, 303.15 K): 4.62e-06
solubility (mole fraction) (in water, 308.15 K): 5.32e-06
solubility (mole fraction) (in water, 313.15 K): 6.12e-06
solubility (mole fraction) (in water, 318.15 K): 7e-06
solubility (mole fraction) (in water, 323.15 K): 7.96e-06
solubility (mole fraction) (in water, 328.15 K): 9.03e-06
